{
  "source": "paper PMC1876254",
  "about": "(Plant Molecular Biology, 2007)",
  "biological_target": "T1, LeMTS1 (Solanum lycopersicum, UniProt Q1XBU5)",
  "T1 sequence (Q1XBU5 44-609)": "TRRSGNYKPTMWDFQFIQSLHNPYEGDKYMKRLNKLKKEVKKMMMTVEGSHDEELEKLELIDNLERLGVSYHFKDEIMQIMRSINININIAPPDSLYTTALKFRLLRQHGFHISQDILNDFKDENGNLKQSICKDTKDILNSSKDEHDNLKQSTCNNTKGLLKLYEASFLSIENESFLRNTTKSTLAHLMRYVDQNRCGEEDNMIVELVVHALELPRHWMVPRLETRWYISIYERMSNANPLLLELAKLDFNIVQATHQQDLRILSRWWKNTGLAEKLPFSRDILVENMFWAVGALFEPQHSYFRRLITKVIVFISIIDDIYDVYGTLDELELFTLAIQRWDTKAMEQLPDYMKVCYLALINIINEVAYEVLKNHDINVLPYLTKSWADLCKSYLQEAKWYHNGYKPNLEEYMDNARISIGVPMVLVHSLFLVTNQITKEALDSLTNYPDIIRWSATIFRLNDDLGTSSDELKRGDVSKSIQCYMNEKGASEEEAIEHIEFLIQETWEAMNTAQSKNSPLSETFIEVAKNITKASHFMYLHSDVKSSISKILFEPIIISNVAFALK",
  "assay": "terpene synthase assay, SPME GC-TOF-MS of products",
  "type": "biochemical",
  "details": "product (E)-nerolidol; 10 uM substrate, 10 mM MgCl2, 2 mM MnCl2, HEPES pH 7.5, 30 C, 1 h",
  "data": [
    {"smiles": "CC(C)=CCC/C(C)=C/CC/C(C)=C/COP(=O)(O)OP(=O)(O)O", "note": "[FPP]", "values": [
      {"measurement": "terpene synthase assay, SPME GC-TOF-MS of products", "value": "LeMTS1 was also able to utilize the sesquiterpene precursor farnesyl diphosphate (FPP) as substrate"}
    ]}
  ]
}
